# Reference: PMC12367838, “Relevance of kinetic interactions and co-formulants for plant protection product liver toxicity in vitro” (Archives of Toxicology, 2025)
# Key:
# [1] = WST-1 cytotoxicity assay; format: cell-based, human; conditions: human, differentiated HepaRG cells, WST-1 assay, 72 h incubation
# Description: (§1) Wild-type human hepatoma HepaRG cells obtained from Biopredic International (Saint Grégoire, France) were cultivated for 4 weeks in a Binder cell culture incubator maintained at 37 °C in a 5% humidified atmosphere with 5% CO2 before they were employed in this study. The 4 weeks consisted of 2 weeks of proliferation and 2 weeks of differentiation. […]
# (§2) Cytotoxicity assays were performed in 96-well plates at a density of 9000 cells per well, and test compounds were incubated for 72 h. […] After the 30-min incubation with WST-1, absorbance was measured at 450 nm corrected by a reference at 620 nm (λexc = 450 nm/λemi = 620 nm) using an Infinite M200 PRO plate reader (Tecan; Männedorf, Switzerland). […] The absorbed dye was quantified by fluorescence measurement (λexc = 530 nm/λemi = 645 nm) on an Infinite M200 PRO plate reader (Tecan; Männedorf, Switzerland). Background corrected viability values of both assays were expressed as a percentage of untreated cells. […] Means and standard deviations for each treatment were calculated. […]
# [2] = tested on: CYP3A4; conditions: clearance of DIF in healthy human adults; ref Wetmore et al. (2014); cited from earlier work
# [3] = Neutral red uptake (NRU) cytotoxicity assay; format: cell-based, human; conditions: human, differentiated HepaRG cells, NRU assay, 72-h incubation
# Description: as §1, §2
# [4] = tested on: UGT1A4; conditions: clearance of DIF in healthy human adults; ref Wetmore et al. (2014); cited from earlier work
# [5] = tested on: CYP2C9; assay: CYP450 reaction phenotyping, CYP2C9-Silensomes; format: in vitro ADME; conditions: human, pH 7.4
# Text: (§3) Silensomes™ CYP phenotyping kits (Lonza; Basel, Switzerland) contain human pooled liver microsomes (HLM) that are chemically and irreversibly inactivated by mechanism-based inhibitor for each specific CYP450 isoenzyme. Each CYP-Silensomes™ has a corresponding control that is produced the same way without inactivation. […] However, CYP2C19-Silensomes™ were not available for purchasing. The assay was essentially performed according to the instructions of the supplier. […] At 0, 10, 20, 30, and 45 min, 50 µL of the reaction volume was removed and put in a tube containing 50 µL of methanol to stop the CYP reactions. The tubes were allowed to stand at 4 °C for 1 h to allow protein precipitation to occur. Afterwards, the tubes were centrifuged at 3500 × g for 15 min at 4 °C before the supernatant was removed and analyzed using LC–MS/MS. The control experiments with the control HLM were performed at the same time as the Silensomes™. The in vitro intrinsic clearance (Clint) for each enzyme was calculated as follows: Clint (µL/min/mg) = (slope × V)/P, where the slope is the elimination rate constant (min^−1) for exponential substrate loss, V is the incubation volume (µL), and P is the microsomal protein (mg). The fraction metabolized by each CYP enzymes was determined as follows: fm = (1 – (Clint CYP-Silensomes™/Clint Control-Silensomes™)) × 100. […]
# [6] = tested on: CYP1A2; assay: CYP450 reaction phenotyping, CYP1A2-Silensomes; format: in vitro ADME, human
# Text: Silensomes™ CYP phenotyping kits (Lonza; Basel, Switzerland) contain human pooled liver microsomes (HLM) that are chemically and irreversibly inactivated by mechanism-based inhibitor for each specific CYP450 isoenzyme. Each CYP-Silensomes™ has a corresponding control that is produced the same way without inactivation. […] However, CYP2C19-Silensomes™ were not available for purchasing. The assay was essentially performed according to the instructions of the supplier. […] At 0, 10, 20, 30, and 45 min, 50 µL of the reaction volume was removed and put in a tube containing 50 µL of methanol to stop the CYP reactions. The tubes were allowed to stand at 4 °C for 1 h to allow protein precipitation to occur. Afterwards, the tubes were centrifuged at 3500 × g for 15 min at 4 °C before the supernatant was removed and analyzed using LC–MS/MS. The control experiments with the control HLM were performed at the same time as the Silensomes™. The in vitro intrinsic clearance (Clint) for each enzyme was calculated as follows: Clint (µL/min/mg) = (slope × V)/P, where the slope is the elimination rate constant (min^−1) for exponential substrate loss, V is the incubation volume (µL), and P is the microsomal protein (mg). The fraction metabolized by each CYP enzymes was determined as follows: fm = (1 – (Clint CYP-Silensomes™/Clint Control-Silensomes™)) × 100. Three independent experiments were conducted with the same batch of Silensomes™.
# [7] = tested on: HepaRG cells; assay: Quantification of DIF in cell culture supernatant (LC-MS/MS); conditions: 24-h treatment of HepaRG cells; µg DIF in medium/µg start concentration × 100%
# Description: HepaRG cells were incubated for 24 h at 37 °C and 5% CO2 in a humidified atmosphere with each test compound in treatment medium of 0.5% final DMSO concentration. After incubation, medium was harvested and cells were washed twice with 0.5 mL PBS, which was added to the harvested medium. Cell lysis was performed on ice by adding 0.55 mL of RIPA Lysis and Extraction Buffer (Thermo Fisher Scientific, Waltham, Massachusetts, USA) in each well. The experiment was conducted in duplicates, which were pooled to make a final volume of 3 mL for medium samples and 1.1 ml of the cell samples for each test compound. The Pierce™ BCA Protein Assay Kit (Thermo Fisher Scientific, Waltham, Massachusetts, USA) was utilized to quantify protein in 50 µL of the cell lysates in order to normalize the measured pesticide concentrations in cells to absolute protein quantities.
# Briefly, each of the 1.5 mL of medium samples and 500 µL cell samples was added to 50 mL centrifuge tubes. Up to 5 mL Milli-Q water was added followed by 10 mL acetonitrile. The mixture was shaken vigorously by a vortex mixer for 10 min. […]
# Samples from the CYP450 reaction phenotyping and pesticide quantification were analyzed with an Agilent 1290 Infinity II LC system coupled to Agilent 6475 triple quadrupole LC/MS systems (Agilent Technologies; Heilbronn, Germany). […]
# [8] = tested on: HepaRG cells; assay: Total RNA sequencing, differential gene expression; conditions: 24 h, vs solvent control
# [9] = tested on: CYP3A4; assay: CYP450 reaction phenotyping, CYP3A4-Silensomes; format: in vitro ADME, human
# Text: as §3
# [10] = tested on: CYP2C9; conditions: clearance of DIF in healthy human adults; ref Wetmore et al. (2014); cited from earlier work
# [11] = CYP450 reaction phenotyping, control-Silensomes; format: in vitro ADME, human
# Text: as §3
# [12] = high sub-cytotoxic concentration
# [13] = low sub-cytotoxic concentration
smiles,measurement,setting,value
"CC1COC(Cn2cncn2)(c2ccc(Oc3ccc(Cl)cc3)cc2Cl)O1 (centres unmarked) [DIF, difenoconazole]",EC50 at 72 h,[1],11.8 µg/mL
same,CYP3A4 fm,[2],43.3%
same,EC50 at 72 h,[3],15.9 µg/mL
same,UGT1A4 fm,[4],4.55%
same,microsomal CLint at 1 µM,[5],12.5 µL/min/mg
same,CYP1A2 fm (fraction metabolized),[6]; Silensomes vs control-Silensomes,≈ 0%
same,"DIF remaining, CYP1A2-Silensomes",[6]; after a 45-min incubation,about 20%
same,microsomal CLint at 1 µM,"[6]; human, pH 7.4",15.8 µL/min/mg
same,DIF remaining in the cell culture medium,[7],~4%
same,ACOX1 log2FoldChange,[8]; [12],-0.02489
same,AHR log2FoldChange,[8]; [12],0.5444
same,CD36 log2FoldChange,[8]; [12],-0.5278
same,FASN log2FoldChange,[8]; [12],-0.3325
same,INSIG1 log2FoldChange,[8]; [12],-1.049
same,MLXIPL log2FoldChange,[8]; [12],0.2472
same,NR1H2 log2FoldChange,[8]; [12],0.8621
same,NR1H4 log2FoldChange,[8]; [12],-0.4056
same,NR1I2 log2FoldChange,[8]; [12],0.3067
same,NR1I3 log2FoldChange,[8]; [12],-1.429
same,NR3C1 log2FoldChange,[8]; [12],0.4134
same,PPARA log2FoldChange,[8]; [12],-0.3067
same,PPARG log2FoldChange,[8]; [12],2.421
same,RARA log2FoldChange,[8]; [12],0.4466
same,RARB log2FoldChange,[8]; [12],1.042
same,RARG log2FoldChange,[8]; [12],0.1102
same,SCD log2FoldChange,[8]; [12],-0.7403
same,SREBF1 log2FoldChange,[8]; [12],-1.013
same,ACOX1 log2FoldChange,[8]; [13],0.1757
same,AHR log2FoldChange,[8]; [13],-0.129
same,CD36 log2FoldChange,[8]; [13],0.878
same,FASN log2FoldChange,[8]; [13],0.4404
same,INSIG1 log2FoldChange,[8]; [13],1.024
same,MLXIPL log2FoldChange,[8]; [13],0.1497
same,NR1H2 log2FoldChange,[8]; [13],0.1806
same,NR1H4 log2FoldChange,[8]; [13],0.1474
same,NR1I2 log2FoldChange,[8]; [13],0.3965
same,NR1I3 log2FoldChange,[8]; [13],-0.3855
same,NR3C1 log2FoldChange,[8]; [13],-0.2111
same,PPARA log2FoldChange,[8]; [13],0.07836
same,PPARG log2FoldChange,[8]; [13],0.2447
same,RARA log2FoldChange,[8]; [13],0.1188
same,RARB log2FoldChange,[8]; [13],0.3597
same,RARG log2FoldChange,[8]; [13],0.07285
same,SCD log2FoldChange,[8]; [13],0.5665
same,SREBF1 log2FoldChange,[8]; [13],-0.5234
same,"CLint, CYP3A4-Silensomes","[9]; 1 µM DIF, 1 mg/mL, 37 °C",9.27 µL x min^−1 × mg^−1
same,"DIF remaining, CYP3A4-Silensomes",[9]; after 45 min,~40%
same,CYP2C9 fm,[10],5.41%
same,"DIF remaining, control-Silensomes",[11]; after a 45-min incubation,about 20%
same,microsomal CLint at 1 µM,"[11]; human, pH 7.4",15.7 µL/min/mg
